Assay: gradient 5% acetonitrile 3 min, to 50% in 2 min, to 85% in 15 min, held 3 min, 100 µL/min
Details: column: Zorbax Extend-C18 2.1 x 50 mm; eluents: water / acetonitrile, 0.1% formic acid
Outline: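 Pure standards were analyzed in mixtures of ~100 molecules using HPLC coupled to a quadrupole time-of-flight mass spectrometer, in both positive and negative ionization mode. Separation used a Zorbax Extend-C18 column (2.1 × 50 mm, 1.8 μm) at 100 μL/min, with water and acetonitrile each containing 0.1% formic acid. Dead and dwell volumes were 40 μL and 900 μL, and data were collected over 3 months. Retention time was read from computationally picked adduct peaks, each inspected manually.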

Row | SMILES | RP-LC retention time [s]
1 | c1cc(CN2CCCCC2)cc(OCCCNc2nc3ccccc3s2)c1 | 665
2 | Cc1ccc(CNC(=O)Nc2cccc(-c3ccc(N4CCC(C)CC4)nn3)c2)cc1 | 784
3 | Cc1ccc(NS(=O)(=O)c2ccc(-c3c(C)noc3C)cc2)cc1F | 964
4 | O=c1c2cc(-c3cccs3)nn2ccn1Cc1noc(CN2CCCCCCC2)n1 | 688
5 | O=C(N1CC(c2nc(-c3cccs3)no2)C1)C1(c2ccccc2)CCOCC1 | 814
6 | Cc1nc(-c2cc(S(=O)(=O)N3CCC(C(=O)N4CCOCC4)CC3)c(C)s2)no1 | 742
7 | CN(C1CCc2nn(CC3CC3)c(=O)n2CC1)S(=O)(=O)c1cccc(F)c1 (configuration not stated) | 777
8 | C=CCNc1nc(-c2cccc([N+](=O)[O-])c2)cs1 | 949
9 | O=C(Nc1ccc2c(c1)OCO2)C1CCCN(c2ncnc3c2nc2n3CCCCC2)C1 (configuration not stated) | 759
10 | CC(C)(C)c1nnc2n(c1=O)N=C(c1ccc(F)cc1)CS2 | 857
11 | O=C(Nc1ccccc1F)C1CCN(S(=O)(=O)c2cc(C(=O)N3CCCCCC3)cs2)CC1 | 916
12 | Cc1cc(C)cc(NC(=O)C2CCN(S(=O)(=O)c3ccc(-c4noc(C5CC5)n4)cc3)CC2)c1 | 838
13 | CCOC(=O)C1CCN(C(=O)C2CCCN(c3cnc4nc(C)c(C)nc4c3)C2)CC1 (configuration not stated) | 689
14 | COCc1nc(C2CCN(C(=O)C3CCC3)C2)no1 (configuration not stated) | 672
15 | Cc1noc(C)c1C(=O)N1CC(F)(F)C[C@H]1c1nc(C2CC2)no1 | 806
16 | Cc1cc(OCC(=O)N[C@@H](C)C(=O)O)c2c3c(c(=O)oc2c1)CCCC3 | 746
17 | O=C(c1ccccc1)c1ccc[nH]1 | 842

The remaining lines, values ahead:

Row | RP-LC retention time [s] | SMILES
18 | 1080 | O=C(Cn1cnc2c(sc3nc(-c4ccccc4)ccc32)c1=O)Nc1cccc(Cl)c1
19 | 709 | COc1ccccc1N(Cc1nc2nc(C)cc(C)n2n1)C(=O)c1ccco1
20 | 680 | CCOC(=O)c1ccccc1NC(=O)CSc1ccc(N2CCCC(C(=O)NC3CC3)C2)nn1 (configuration not stated)
21 | 1020 | Cc1ccc(C)c(NC(=O)N2CCCC(C)(C(=O)NCc3ccccc3C)C2)c1 (configuration not stated)
22 | 1210 | COC(=O)c1ccc2c(=O)n(CCc3ccccc3)c(N3CCCC3)nc2c1
23 | 741 | O=C(c1ccco1)N1CCN(c2ncnc3c2cnn3Cc2ccccc2)CC1
24 | 652 | CCn1c(=O)c(=O)n(CC(=O)NCc2ccco2)c2cccnc21
25 | 1120 | CCOc1ccc(-n2nnc(C(=O)Nc3cccc(Cl)c3C)c2C)cc1
26 | 792 | CCc1ccc(CNC(=O)CN2C(=O)NC3(CCCCC3)C2=O)cc1
27 | 950 | CCOc1ccc(S(=O)(=O)N(C)C)c2ccccc12
28 | 755 | O=C(CCNc1c(-c2cccc(F)c2)nc2cnccn12)NCc1ccc(F)cc1
29 | 583 | COc1ccc(N2CCN(CCNC(=O)c3ccc(Br)o3)CC2)cc1
30 | 927 | CCN(CC)S(=O)(=O)c1ccc2c(c1)N(CC(=O)NC1CCCC1)C(=O)C1CCCCN21 (configuration not stated)
31 | 645 | O=C(NCCSC12CC3CC(CC(C3)C1)C2)c1ccc(CN2C(=O)CCn3nccc32)cc1
32 | 756 | Cc1ccc(CNC(=O)c2nc(-c3ccnc(N4CCCCC4)c3)no2)o1
33 | 791 | COc1ccc2c(CCNC(=O)Nc3ccccc3)c[nH]c2c1
34 | 1020 | COc1ccc(-c2csc3c(=O)n(CC(C)C)cnc23)cc1
35 | 622 | O=C(NCc1ccccn1)C1CCN(C(=O)c2ncn3c2COC(c2ccc(F)cc2)C3)CC1 (configuration not stated)
36 | 584 | O=C(NCCCN1CCOC(c2ccccc2)C1)NC1CCCCC1 (configuration not stated)
37 | 640 | O=C(NCCCN1CCCC1)c1cc2n(n1)CCCN(Cc1ccc(Cl)cc1)C2=O

From the METLIN SMRT retention time set (Domingo-Almenara et al. 2019)
